Each molecule was assayed against T1, wildtype HIV-1 protease (Human immunodeficiency virus type 1 group M subtype B, UniProt P04585) (assay: Assay for inhibition of microbial expressed HIV protease (Pepcleav)). Details: Pepcleav (nM), wild type HIV-1 protease expressed in E. coli, peptide substrate, pH 5.5; mean of at least two independent experiments.
T1 construct: the wildtype HIV-1 protease (which was expressed in Escherichia coli); made in house; host or cells: Escherichia coli
Format: biochemical
Method: Assay for Inhibition of Microbial Expressed HIV Protease (“Pepcleav”)
Studies of the inhibition of the wildtype HIV-1 protease (which was expressed in Escherichia coli) were carried out with a peptide substrate [Val-Ser-Gln-Asn-(βnaphthyl)Ala-Pro-Ile-Val (SEQ ID NO:1)]. The inhibitor is first preincubated with the HIV-1 protease (wild type) enzyme in assay buffer (50 mM sodium acetate, pH 5.5, 100 mM NaCl, and 0.1% BSA) for 30 minutes at room temperature. Substrate is added to 400 micromolar in a total volume of 20 microliters containing 20 picomolar HIV-1 protease (final) and the reaction is incubated for 1 hour at 30° C. The reaction is quenched with the addition of formic acid and indinavir to 0.012% and 150 nM final concentrations, respectively. The product formation is determined after separation of product and substrate on a Zorbax Eclipse XDB-C 18 column connected to an API 4000 mass spectrometer (Applied Biosystems) with multiple reaction monitoring (transitions were 644.5/428.9 and 615.4/422.2 (M1/M3) for product and indinavir respectively). The extent of inhibition of the reaction is determined from the peak area of the products.

SMILES	IC50
COC(=O)N[C@H](C(=O)Nc1ccccc1CC[C@@H]1CN[C@H](CNC(=O)Oc2ccccc2)CO1)C(c1ccccc1)c1ccccc1 [Example 51, Nα-(methoxycarbonyl)-N-(2-{2-[(2R,5R)-5-{[(phenoxycarbonyl)amino]methyl}morpholin-2-yl]ethyl}phenyl)-β-phenyl-L-phenylalaninamide]	38 nM

Same assay, conditions: wild type HIV-1 protease expressed in E. coli, peptide substrate, pH 5.5; mean of at least two independent experiments; read-out: Pepcleav

SMILES	IC50
COC(=O)N[C@H](C(=O)Nc1ccccc1CC[C@@H]1CN[C@H](CNS(=O)(=O)c2ccc(N)cc2)CO1)C(c1ccccc1)c1ccccc1 [Example 49, N-(2-{2-[(2R,5R)-5-({[(4-aminophenyl)sulfonyl]amino}methyl)morpholin-2-yl]ethyl}phenyl)-Nα-(methoxy-carbonyl)-β-phenyl-L-phenylalaninamide]	94 nM
COC(=O)N[C@H](C(=O)Nc1ccccc1CC[C@@H]1CN[C@H](CNS(=O)(=O)Cc2ccccc2)CO1)C(c1ccccc1)c1ccccc1 [Example 50, N-(2-{2-[(2R,5R)-5-{[(benzylsulfonyl)amino]methyl}morpholin-2-yl]ethyl}phenyl)-Nα-(methoxycarbonyl)-β-phenyl-L-phenylalaninamide]	49 nM
COC(=O)N[C@H](C(=O)Nc1ccccc1CC[C@@H]1CN[C@H](CNC(=O)c2ccccc2)CO1)C(c1ccccc1)c1ccccc1 [Example 52, Nα-(methoxycarbonyl)-β-phenyl-N-(2-{2-[(2R,5R)-5-{[(phenylcarbonyl)amino]methyl}morpholin-2-yl]ethyl}phenyl)-L-phenylalaninamide]	96 nM
COC(=O)N[C@H](C(=O)Nc1ccccc1CC[C@@H]1CN[C@H](CNC(=O)Cc2ccccc2)CO1)C(c1ccccc1)c1ccccc1 [Example 53, Nα-(methoxycarbonyl)-β-phenyl-N-(2-{2-[(2R,5R)-5-{[(phenylacetyl)amino]methyl}morpholin-2-yl]ethyl}phenyl)-L-phenylalaninamide]	12 nM
COC(=O)N[C@H](C(=O)Nc1ccccc1CC[C@@H]1CN[C@H](CNC(=O)c2cccnn2)CO1)C(c1ccccc1)c1ccccc1 [Example 54, methyl N-[(1S)-1-benzhydryl-2-oxo-2-[[2-[2-[(2R,5R)-5-[(pyridazine-3-carbonyl-amino)methyl]morpholin-2-yl]ethyl]phenyl]amino]ethyl] carbamate]	26 nM
COC(=O)N[C@H](C(=O)Nc1ccccc1CC[C@@H]1CN[C@H](CNC(=O)c2ccccc2Cl)CO1)C(c1ccccc1)c1ccccc1 [Example 55, methyl N-[(1S)-1-benzhydryl-2-[[2-[2-[(2R,5R)-5-[[(2-chloro-benzoyl)amino]methyl]morpholin-2-yl]ethyl]phenyl]amino]-2-oxo-ethyl]carbamate]	30 nM
COC(=O)N[C@H](C(=O)Nc1ccccc1CC[C@@H]1CN[C@H](CNC(=O)c2cc3ccccc3[nH]2)CO1)C(c1ccccc1)c1ccccc1 [Example 56, methyl N-[(1S)-1-benzhydryl-2-[[2-[2-[(2R,5R)-5-[(1H-indole-2-carbonylamino)methyl]morpholin-2-yl]ethyl]phenyl]amino]-2-oxo-ethyl]carbamate]	34 nM
COC(=O)N[C@H](C(=O)Nc1ccccc1CC[C@@H]1CN[C@H](CNC(=O)c2c(C)cccc2C)CO1)C(c1ccccc1)c1ccccc1 [Example 57, methyl N-[(1S)-1-benzhydryl-2-[[2-[2-[(2R,5R)-5-[[(2,6-dimethylbenzoyl)amino]methyl]morpholin-2-yl]ethyl]phenyl]amino]-2-oxo-ethyl]carbamate]	50 nM
COC(=O)N[C@H](C(=O)Nc1ccccc1CC[C@@H]1CN[C@H](CNC(=O)c2[nH]c(=O)ccc2F)CO1)C(c1ccccc1)c1ccccc1 [Example 58, methyl N-[(1S)-1-benzhydryl-2-[[2-[2-[(2R,5R)-5-[[(3-fluoro-6-oxo-1H-pyridine-2-carbonyl)amino]methyl]morpholin-4-ium-2-yl]ethyl]phenyl]amino]-2-oxo-ethyl]carbamate]	66 nM
COC(=O)N[C@H](C(=O)Nc1ccccc1CC[C@@H]1CN[C@H](CNC(=O)c2cc3ncccn3n2)CO1)C(c1ccccc1)c1ccccc1 [Example 59, methyl N-[(1S)-1-benzhydryl-2-oxo-2-[[2-[2-[(2R,5R)-5-[(pyrazolo[1,5-a]pyrimidine-2-carbonylamino)methyl]morpholin-2-yl]ethyl]phenyl]amino]ethyl] carbamate]	71 nM
COC(=O)N[C@H](C(=O)Nc1ccccc1CC[C@@H]1CN[C@H](CNC(=O)c2cc(-c3ccccn3)[nH]n2)CO1)C(c1ccccc1)c1ccccc1 [Example 60, methyl N-[(1S)-1-benzhydryl-2-oxo-2-[[2-[2-[(2R,5R)-5-[[[5-(2-pyridyl)-1H-pyrazole-3-carbonyl]amino]methyl]morpholin-2-yl]ethyl]phenyl]amino]ethyl] carbamate]	72 nM
COC(=O)N[C@H](C(=O)Nc1ccccc1CC[C@@H]1CN[C@H](CO)CO1)C(c1ccccc1)c1ccccc1 [Example 61, N-(2-{2-[(2R,5R)-5-(hydroxymethyl)morpholin-2-yl]ethyl}phenyl)-Nα-(methoxycarbonyl)-β-phenyl-L-phenylalaninamide]	160 nM
COC(=O)N[C@H](C(=O)Nc1ccccc1CC[C@@H]1CN[C@H](CSc2ccccc2)CO1)C(c1ccccc1)c1ccccc1 [Example 62, Nα-(methoxycarbonyl)-β-phenyl-N-[2-(2-{(2R,5S)-5-[(phenylsulfanyl)methyl]morpholin-2-yl}ethyl)phenyl]-L-phenylalaninamide]	130 nM
COC(=O)N[C@H](C(=O)Nc1ccccc1CC[C@@H]1CN[C@H](COc2ccccc2)CO1)C(c1ccccc1)c1ccccc1 [Example 63, Nα-(methoxycarbonyl)-N-(2-{2-[(2R,5S)-5-(phenoxymethyl)morpholin-2-yl]ethyl}phenyl)-β-phenyl-L-phenylalaninamide]	49 nM
COC(=O)N[C@H](C(=O)Nc1ccccc1CC[C@@H]1CN[C@H](Cn2cc(-c3ccccc3)nn2)CO1)C(c1ccccc1)c1ccccc1 [Example 64, Nα-(methoxycarbonyl)-β-phenyl-N-[2-(2-{(2R,5R)-5-[(4-phenyl-1H-1,2,3-triazol-1-yl)methyl]morpholin-2-yl}ethyl)phenyl]-L-phenylalaninamide]	56 nM
COC(=O)N[C@H](C(=O)Nc1ccccc1CC[C@@H]1CN[C@H](Cn2cc([Si](C)(C)C)nn2)CO1)C(c1ccccc1)c1ccccc1 [Example 65, Nα-(methoxycarbonyl)-β-phenyl-N-(2-{2-[(2R,5R)-5-{[4-(trimethylsilyl)-1H-1,2,3-triazol-1-yl]methyl}morpholin-2-yl]ethyl}phenyl)-L-phenylalaninamide]	43 nM
COC(=O)N[C@H](C(=O)Nc1ccccc1CC[C@@H]1CN[C@H](Cn2ccnn2)CO1)C(c1ccccc1)c1ccccc1 [Example 66, Nα-(methoxycarbonyl)-β-phenyl-N-(2-{2-[(2R,5R)-5-(1H-1,2,3-triazol-1-ylmethyl)morpholin-2-yl]ethyl}phenyl)-L-phenylalaninamide]	100 nM
COC(=O)N[C@H](C(=O)Nc1ccccc1CC[C@@H]1CN[C@H](CCCc2ccccc2)CO1)C(c1ccccc1)c1ccccc1 [Example 67, methyl{(1S)-1-(diphenylmethyl)-2-oxo-2-[(2-{2-[(2R,5R)-5-(3-phenylpropyl)morpholin-2-yl]ethyl}phenyl)amino]ethyl}carbamate]	26 nM
COC(=O)N[C@H](C(=O)Nc1ccccc1CC[C@@H]1CO[C@H](CCc2ccccc2NC(=O)[C@@H](NC(=O)OC)C(c2ccccc2)c2ccccc2)CN1)C(c1ccccc1)c1ccccc1 [Example 68, dimethyl [(2R,5R)-morpholine-2,5-diylbis {ethane-2,1-diylbenzene-2,1-diylimino[(2S)-1-oxo-3,3-diphenylpropane-1,2-diyl]}]biscarbamate]	0.03 nM
COC(=O)NCC(=O)Nc1ccccc1CC[C@@H]1CO[C@H](CCc2ccccc2NC(=O)[C@@H](NC(=O)OC)C(c2ccccc2)c2ccccc2)CN1 [Example 69, methyl N-[(1S)-1-benzhydryl-2-[[2-[2-[(2R,5R)-5-[2-[2-[[2-(methoxycarbonylamino)acetyl]amino]phenyl]ethyl]morpholin-2-yl]ethyl]phenyl]amino]-2-oxo-ethyl]carbamate]	3.4 nM
COCC(=O)Nc1ccccc1CC[C@@H]1CO[C@H](CCc2ccccc2NC(=O)[C@@H](NC(=O)OC)C(c2ccccc2)c2ccccc2)CN1 [Example 70, methyl N-[(1S)-1-benzhydryl-2-[[2-[2-[(2R,5R)-5-[2-[2-[(2-methoxyacetyl)amino]phenyl]ethyl]morpholin-2-yl]ethyl]phenyl]amino]-2-oxo-ethyl]carbamate]	24 nM
COC(=O)N[C@H](C(=O)Nc1ccccc1CC[C@@H]1CN[C@H](CCc2ccccc2NC(=O)CCc2ccccc2)CO1)C(c1ccccc1)c1ccccc1 [Example 71, methyl N-[(1S)-1-benzhydryl-2-oxo-2-[[2-[2-[(2R,5R)-5-[2-[2-(3-phenylpropanoylamino)phenyl]ethyl]morpholin-2-yl]ethyl]phenyl]amino]ethyl]carbamate]	1.3 nM
COC(=O)N[C@H](C(=O)Nc1ccccc1CC[C@@H]1CN[C@H](CCc2ccccc2N)CO1)C(c1ccccc1)c1ccccc1 [Example 72, methyl N-[(1S)-1-[[2-[2-[(2R,5R)-5-[2-(2-aminophenyl)ethyl]morpholin-2-yl]ethyl]phenyl]carbamoyl]-2,2-diphenyl-ethyl]carbamate]	14 nM

— patent US9315475B2 (MERCK SHARP & DOHME CORP., priority 2011, dated 2016)
